Measurements as given in patent US20110212968A1, “PHENETHYLAMIDE DERIVATIVES AND THEIR HETEROCYCLIC ANALOGUES” (priority 2008, published 2011).

Columns and labels:
[1] = target: T1, human orexin-1 receptor (Homo sapiens, UniProt O43613); experiment: Intracellular calcium measurement (FLIPR Tetra), orexin receptor antagonistic activity, OX1; format: cell-based; conditions: CHO cells expressing human orexin-1 receptor, 3 nM orexin-A
T1 construct: expressed in transfected cells; host or cells: CHO (Chinese hamster ovary) cells, kept under G418 selection
T1 sequence (O43613 1-425): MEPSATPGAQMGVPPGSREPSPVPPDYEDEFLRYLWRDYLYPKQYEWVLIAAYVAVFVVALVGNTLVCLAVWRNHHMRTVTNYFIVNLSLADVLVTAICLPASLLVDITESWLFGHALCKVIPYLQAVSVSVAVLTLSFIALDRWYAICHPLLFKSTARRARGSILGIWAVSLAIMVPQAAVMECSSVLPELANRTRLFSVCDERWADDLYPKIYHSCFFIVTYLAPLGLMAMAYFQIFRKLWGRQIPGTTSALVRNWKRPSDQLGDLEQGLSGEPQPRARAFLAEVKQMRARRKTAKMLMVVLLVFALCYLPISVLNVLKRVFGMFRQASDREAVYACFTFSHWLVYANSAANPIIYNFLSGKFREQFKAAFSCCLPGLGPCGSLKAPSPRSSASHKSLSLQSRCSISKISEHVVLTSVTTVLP
How it was run: (§1)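 Recombinant CHO cells expressing human OX1 or OX2, loaded with fluo-4 AM plus probenecid, were preincubated with antagonist 10 min, then stimulated with 3 nM human orexin-A. Peak fluorescence was compared with vehicle; IC50 derived, sometimes normalized to an on-plate reference compound; two pipetting/cell-splitting conditions were used.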

[2] = target: T2, human orexin-2 receptor (Homo sapiens, UniProt O43614); experiment: Intracellular calcium measurement (FLIPR Tetra), orexin receptor antagonistic activity, OX2; format: cell-based; conditions: CHO cells expressing human orexin-2 receptor, 3 nM orexin-A
T2 construct: expressed in transfected cells; host or cells: CHO (Chinese hamster ovary) cells, kept under G418 selection
T2 sequence (O43614 1-444): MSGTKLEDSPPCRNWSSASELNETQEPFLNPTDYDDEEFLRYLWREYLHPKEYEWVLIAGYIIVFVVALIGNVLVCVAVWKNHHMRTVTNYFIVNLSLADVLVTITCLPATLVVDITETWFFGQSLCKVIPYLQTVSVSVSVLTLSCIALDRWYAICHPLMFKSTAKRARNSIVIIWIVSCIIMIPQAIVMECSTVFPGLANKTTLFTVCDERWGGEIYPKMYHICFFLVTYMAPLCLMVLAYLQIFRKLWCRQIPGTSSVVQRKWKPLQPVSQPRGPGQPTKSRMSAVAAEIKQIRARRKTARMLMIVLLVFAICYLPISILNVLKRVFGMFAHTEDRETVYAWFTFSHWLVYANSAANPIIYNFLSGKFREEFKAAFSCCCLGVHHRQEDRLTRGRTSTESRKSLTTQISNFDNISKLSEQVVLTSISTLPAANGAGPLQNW
How it was run: as §1

[3] = conditions B, normalized (*) using IC50 of on-plate reference compound

IC50 [1, 3]	IC50 [2, 3]	IC50 ([1]; conditions B)	IC50 ([2]; conditions B)	Structure (SMILES)	further results
> 5420 nM	848 nM	–	–	COc1ccc(-c2cccnc2C(=O)N(CCO)CCc2c[nH]c3ccc(F)cc23)cn1 [Example 318, 6′-Methoxy-[3,3′]bipyridinyl-2-carboxylic acid [2-(5-fluoro-1H-indol-3-yl)-ethyl]-(2-hydroxy-ethyl)-amide]	–
280 nM	239 nM	–	–	Cc1cccc(-c2sc(CN)nc2C(=O)N(CCc2c[nH]c3ccc(F)cc23)CC2CC2)c1 [Example 433, 2-Aminomethyl-5-m-tolyl-thiazole-4-carboxylic acid cyclopropylmethyl-[2-(5-fluoro-1H-indol-3-yl)-ethyl]-amide]	–
54 nM	32 nM	–	–	CNc1nc(C(=O)N(CCc2c[nH]c3ccc(F)cc23)CC2CC2)c(-c2cccc(C)c2)s1 [Example 435, 2-Methylamino-5-m-tolyl-thiazole-4-carboxylic acid cyclopropylmethyl-[2-(5-fluoro-1H-indol-3-yl)-ethyl]amide]	–
–	–	1120 nM	16 nM	COCCN(CCc1ccc(OC)c(OC)c1)C(=O)c1nc(C)sc1-c1cccc(F)c1 [Example 127, 5-(3-Fluoro-phenyl)-2-methyl-thiazole-4-carboxylic acid [2-(3,4-dimethoxy-phenyl)-ethyl]-(2-methoxy-ethyl)-amide]	–
1860 nM	89 nM	–	–	COc1ccc2nc(CCN(CC3CC3)C(=O)c3ncccc3-c3ccc(OC)nc3)[nH]c2c1 [Example 371, 6′-Methoxy-[3,3′]bipyridinyl-2-carboxylic acid cyclopropylmethyl-[2-(6-methoxy-1H-benzoimidazol-2-yl)-ethyl]-amide]	–
2260 nM	601 nM	–	–	Cc1ccc(-c2sc(C3CC3)nc2C(=O)N(CCc2c[nH]c3ccc(F)cc23)CC2CC2)cc1F [Example 276, 2-Cyclopropyl-5-(3-fluoro-4-methyl-phenyl)-thiazole-4-carboxylic acid cyclopropylmethyl-[2-(5-fluoro-1H-indol-3-yl)-ethyl]-amide]	–
352 nM	25 nM	–	–	O=C(c1cncnc1-c1cccc(F)c1)N(CCc1c[nH]c2ccccc12)CC1CC1 [Example 510, 4-(3-Fluoro-phenyl)-pyrimidine-5-carboxylic acid cyclopropylmethyl-[2-(1H-indol-3-yl)-ethyl]-amide]	–
–	–	243 nM	201 nM	Cc1cccc(-c2sc(N)nc2C(=O)N(CCn2ccc3ccccc32)CC2CC2)c1 [Example 221, 2-Amino-5-m-tolyl-thiazole-4-carboxylic acid cyclopropylmethyl-(2-indol-1-yl-ethyl)-amide]	–
–	–	5 nM	135 nM	Cc1cccc(-c2sc(N)nc2C(=O)N(CCc2c[nH]c3ccc(Br)cc23)CC2CC2)c1 [Example 223, 2-Amino-5-m-tolyl-thiazole-4-carboxylic acid [2-(5-bromo-1H-indol-3-yl)-ethyl]-cyclopropylmethyl-amide]	–
28 nM	211 nM	–	–	CN(C)c1nc(C(=O)N(CCc2c[nH]c3cc(F)c(Cl)cc23)CC2CC2)c(-c2ccccc2)s1 [Example 472, 2-Dimethylamino-5-phenyl-thiazole-4-carboxylic acid [2-(5-chloro-6-fluoro-1H-indol-3-yl)-ethyl]-cyclopropylmethyl-amide]	–
–	–	21 nM	2 nM	CCCN(CCc1ccc(OC)c(OC)c1)C(=O)c1nc(N)sc1-c1cccc(C)c1 [Example 110, 2-Amino-5-m-tolyl-thiazole-4-carboxylic acid [2-(3,4-dimethoxy-phenyl)-ethyl]-propyl-amide]	–
77 nM	8 nM	–	–	Cc1ccc2[nH]cc(CCN(CC3CC3)C(=O)c3nccnc3-c3ccccc3)c2c1 [Example 324, 3-Phenyl-pyrazine-2-carboxylic acid cyclopropylmethyl-[2-(5-methyl-1H-indol-3-yl)-ethyl]-amide]	–
373 nM	83 nM	–	–	COc1nccc(-c2sc(C)nc2C(=O)N(CCc2c[nH]c3ccc(F)cc23)CC2CC2)c1Cl [Example 420, 5-(3-Chloro-2-methoxy-pyridin-4-yl)-2-methyl-thiazole-4-carboxylic acid cyclopropylmethyl-[2-(5-fluoro-1H-indol-3-yl)-ethyl]-amide]	–
–	–	8 nM	26 nM	Cc1cccc(-c2sc(N)nc2C(=O)N(CCc2c[nH]c3cc(Cl)ccc23)CC2CC2)c1 [Example 224, 2-Amino-5-m-tolyl-thiazole-4-carboxylic acid [2-(6-chloro-1H-indol-3-yl)-ethyl]-cyclopropylmethyl-amide]	–
700 nM	72 nM	–	–	Cc1cncc(-c2cccnc2C(=O)N(CCc2c[nH]c3ccc(F)cc23)CC2CC2)c1 [Example 402, 5′-Methyl-[3,3′]bipyridinyl-2-carboxylic acid cyclopropylmethyl-[2-(5-fluoro-1H-indol-3-yl)-ethyl]-amide]	–
–	–	–	–	COc1ccc(CCN(CC2CC2)C(=O)c2nc(C3CC3)sc2-c2ccccc2)cc1OC [Example 22, 2-Cyclopropyl-5-phenyl-thiazole-4-carboxylic acid cyclopropylmethyl-[2-(3,4-dimethoxy-phenyl)-ethyl]-amide]	IC50 ([1]; conditions A): 570 nM; IC50 ([2]; conditions A): 35 nM
–	–	479 nM	6 nM	CCCN(CCc1ccc(OC)c(OC)c1)C(=O)c1nc(C)sc1-c1cccc(F)c1 [Example 109, 5-(3-Fluoro-phenyl)-2-methyl-thiazole-4-carboxylic acid [2-(3,4-dimethoxy-phenyl)-ethyl]-propyl-amide]	–
–	–	–	–	COc1cccc(-c2oc(C)nc2C(=O)N(CCc2ccc(OC)c(OC)c2)CC2CC2)c1 [Example 42, 5-(3-Methoxy-phenyl)-2-methyl-oxazole-4-carboxylic acid cyclopropylmethyl-[2-(3,4-dimethoxy-phenyl)-ethyl]-amide]	IC50 ([1]; conditions A): 1010 nM; IC50 ([2]; conditions A): 20 nM
246 nM	330 nM	–	–	CCC(=O)Nc1ccc(-c2sc(C)nc2C(=O)N(CCc2c[nH]c3ccccc23)CC2CC2)cc1 [Example 501, 2-Methyl-5-(4-propionylamino-phenyl)-thiazole-4-carboxylic acid cyclopropylmethyl-[2-(1H-indol-3-yl)-ethyl]-amide]	–
345 nM	20 nM	–	–	COc1ccc(-c2sc(C)nc2C(=O)N(CCc2c[nH]c3ccc(F)cc23)CC(F)F)cn1 [Example 307, 5-(6-Methoxy-pyridin-3-yl)-2-methyl-thiazole-4-carboxylic acid (2,2-difluoro-ethyl)-[2-(5-fluoro-1H-indol-3-yl)-ethyl]-amide]	–
–	–	4360 nM	240 nM	Cc1nc(C(=O)N(CCc2ccccc2Cl)CC2CC2)c(-c2ccc(C)c(C)c2)s1 [Example 180, 5-(3,4-Dimethyl-phenyl)-2-methyl-thiazole-4-carboxylic acid [2-(2-chloro-phenyl)-ethyl]-cyclopropylmethyl-amide]	–
259 nM	15 nM	–	–	COc1cccc(-c2ncncc2C(=O)N(CCc2c[nH]c3ccccc23)CC2CC2)c1 [Example 506, 4-(3-Methoxy-phenyl)-pyrimidine-5-carboxylic acid cyclopropylmethyl-[2-(1H-indol-3-yl)-ethyl]-amide]	–

Structure (SMILES)	IC50 [1, 3]	IC50 [2, 3]	IC50 ([1]; conditions B)	IC50 ([2]; conditions B)	further results
CCN(CCc1c[nH]c2ccccc12)C(=O)c1nccnc1-c1cccc(OC)c1 [Example 533, 3-(3-Methoxy-phenyl)-pyrazine-2-carboxylic acid ethyl-[2-(1H-indol-3-yl)-ethyl]-amide]	2370 nM	258 nM	–	–	–
